Experimental data reported in patent US8901038B2, “Biphenyl-substituted cyclic ketoenols” (Bayer CropScience AG, priority 2010, dated 2014).

What was measured:
[1] = test system: caterpillars of the armyworm (Spodoptera frugiperda); experiment: Spodoptera frugiperda test (SPODFR spray treatment); type: in vivo; conditions: application rate 500 g/ha; maize leaf discs sprayed; after 7 days
Experimental: Spodoptera frugiperda Test (SPODFR Spray Treatment)
(§1) • Solvents: 78.0 parts by weight of acetone • 1.5 parts by weight of dimethylformamide • Emulsifier: 0.5 part by weight of alkylaryl polyglycol ether
To produce a suitable preparation of active compound, 1 part by weight of active compound is mixed with the stated amounts of solvent and emulsifier, and the concentrate is diluted with emulsified water to the desired concentration. Discs of maize leaves (Zea mays) are sprayed with an active compound preparation of the desired concentration and, after drying, populated with caterpillars of the armyworm (Spodoptera frugiperda).
After 7 days, the effect in % is determined. 100% means that all caterpillars have been killed; 0% means that none of the caterpillars have been killed.

[2] = test system: green peach aphid (Myzus persicae); experiment: Myzus test (MYZUPE spray treatment); type: in vivo; conditions: application rate 500 g/ha; Chinese cabbage leaf discs sprayed; after 6 days
Experimental: Myzus Test (MYZUPE Spray Treatment)
• Solvents: 78 parts by weight of acetone • 1.5 parts by weight of dimethylformamide • Emulsifier: 0.5 part by weight of alkylaryl polyglycol ether
To produce a suitable preparation of active compound, 1 part by weight of active compound is mixed with the stated amounts of solvent and emulsifier, and the concentrate is diluted with emulsifier-containing water to the desired concentration. Discs of Chinese cabbage (Brassica pekinensis) which are infested by all stages of the green peach aphid (Myzus persicae) are sprayed with an active compound preparation of the desired concentration. After 6 days, the effect in % is determined. 100% means that all aphids have been killed; 0% means that none of the aphids have been killed.

[3] = test system: Lucilia cuprina larvae; experiment: Lucilia cuprina test (LUCICU); type: in vivo; conditions: application rate 100 ppm; treated horse meat; after 2 days
Experimental: Lucilia cuprina test (LUCICU)
(§2) • Solvent: Dimethyl sulphoxide
To produce a suitable preparation of active compound, 10 mg of active compound are mixed with 0.5 ml of dimethyl sulphoxide and the concentrate is diluted with water to the desired concentration. Containers containing horse meat treated with the active compound preparation of the desired concentration are populated with about 20 Lucilia cuprina larvae.
After 2 days, the kill in % is determined. 100% means that all larvae have been killed; 0% means that none of the larvae have been killed.

[4] = test system: greenhouse red spider mite (Tetranychus urticae); experiment: Tetranychus test; OP-resistant (TETRUR spray treatment); type: in vivo; conditions: application rate 100 g/ha; bean leaf discs sprayed; after 6 days
Experimental: Tetranychus Test; OP-Resistant (TETRUR Spray Treatment)
as §1
To produce a suitable preparation of active compound, 1 part by weight of active compound is mixed with the stated amounts of solvent and emulsifier, and the concentrate is diluted with emulsifier-containing water to the desired concentration. Discs of bean leaves (Phaseolus vulgaris), which are infested by all stages of the greenhouse red spider mite (Tetranychus urticae) are sprayed with an active compound preparation of the desired concentration.
After 6 days, the effect in % is determined. 100% means that all spider mites have been killed; 0% means that none of the spider mites have been killed.

[5] = test system: Boophilus microplus; experiment: Boophilus microplus test (BOOPMI injection); type: in vivo; conditions: application rate 20 μg/animal; injection into the abdomen; after 7 days
Experimental: Boophilus microplus Test (BOOPMI Injection)
as §2
To produce a suitable preparation of active compound, 10 mg of active compound are mixed with 0.5 ml of solvent and the concentrate is diluted with solvent to the desired concentration. The solution of active compound is injected into the abdomen (Boophilus microplus) and the animals are transferred into dishes and stored in a climatized room. The efficacy is monitored for deposition of fertile eggs.
After 7 days, the effect in % is determined. 100% means that none of the ticks has laid any fertile eggs.

[6] = test system: Meloidogyne incognita; experiment: Meloidogyne incognita test (MELGIN); type: in vivo; conditions: application rate 20 ppm; lettuce roots; after 14 days
Experimental: Meloidogyne incognita Test (MELGIN)
as §1
To produce a suitable preparation of active compound, 1 part by weight of active compound is mixed with the stated amounts of solvents and emulsifier, and the concentrate is diluted with water to the desired concentration. Containers are filled with sand, solution of active compound, Meloidogyne incognita egg/larvae suspension and lettuce seeds. The lettuce seeds germinate and the plants develop. On the roots, galls are formed. After 14 days, the nematicidal activity is determined in % by the formation of galls. 100% means that no galls are found; 0% means that the number of galls on the treated plants corresponds to that of the untreated controls.

[7] = test system: larvae of the mustard beetle (Phaedon cochleariae); experiment: Phaedon test (PHAECO spray treatment); type: in vivo; conditions: application rate 500 g/ha; Chinese cabbage leaf discs sprayed; after 7 days
Experimental: Phaedon Test (PHAECO Spray Treatment)
as §1
To produce a suitable preparation of active compound, one part by weight of active compound is mixed with the stated amounts of solvents and emulsifier, and the concentrate is diluted with emulsifier-containing water to the desired concentration. […].
After 7 days, the effect in % is determined. 100% means that all beetle larvae have been killed; 0% means that none of the beetle larvae have been killed.

[8] = Text: Use is made of leaves which, fully developed, are cut from apple trees of the cultivar Golden Delicious.
Only the cuticles, free from hairs and stoma, of the upper sides of the leaves are then used. They are washed repeatedly alternating with water and a buffer solution of pH 7. The clean cuticles obtained are then mounted on Teflon plates and smoothed and dried with a gentle stream of air.
In the next step, the cuticle membranes obtained in this manner are placed into stainless steel diffusion cells (=transport chambers) for membrane transport studies. To this end, the cuticles are placed with a pincette into the centre of the edges, coated with silicone fat, of the diffusion cells and closed with a ring, which is also treated with fat. The arrangement is chosen such that the morphological outside of the cuticles is facing outwards, i.e. exposed to air, whereas the original inside is facing the interior of the diffusion cell.
The diffusion cells are filled with a 30% strength ethylene glycol/water solution. To determine the penetration, in each case 10 μl of the spray liquor of the composition below are applied to the outside of the cuticles. The spray liquor is prepared using local tap water of medium hardness.
After the application of the spray liquors, the water is allowed to evaporate and the chambers are inverted and placed into thermostatic tubs in which temperature and atmospheric humidity over the cuticles can be adjusted using a gentle stream of air onto the cuticles with the spray coating (35° C., 60% rh).

Row | Structure (SMILES) | efficacy (caterpillars killed) [1] | efficacy (aphids killed) [2] | efficacy (kill of larvae) [3] | efficacy (spider mites killed) [4] | efficacy (deposition of fertile eggs) [5] | efficacy (nematicidal activity by formation of galls) [6] | efficacy (beetle larvae killed) [7] | Penetration after 48 h/% EC + AS (0.7 g/l) [8] | Penetration after 48 h/% EC + RME (1 g/l) [8] | Penetration after 48 h/% EC + RME (1 g/l) + AS (0.7 g/l) [8]
1 | Cc1ccc(-c2ccc(Cl)cc2)c(Cl)c1C1=C(O)C2(CCOCC2)NC1=O [Example I-1-a-11] | 83% | 100% | 100% | 100% | 90% | > 80% |  |  |  | 
2 | Cc1ccc(-c2ccc(F)cc2)c(Cl)c1C1=C(O)C2(CCOCC2)NC1=O [Example I-1-a-12] | 100% | 100% | 100% | 100% | 95% |  | 100% |  |  | 
3 | COC1CCC2(CC1)NC(=O)C(c1c(Cl)ccc(-c3ccc(F)cc3)c1C)=C2O (stereo not drawn) [Example I-1-a-14] | 100% | 100% | 100% | 90% | 95% |  | 100% |  |  | 
4 | CCON1CCC2(CC1)NC(=O)C(c1c(CC)ccc(-c3ccc(Cl)cc3)c1CC)=C2O [Example I-1-a-25] |  | 100% |  | 100% |  |  | 100% | 2% | 4% | 10%
